The text below walks through data of US7807712B2, “Oxy substituted chalcones as antihyperglycemic and antidyslipidemic agents” (priority 2004, dated 2010).

One may read the melting point as the temperature of the solid-liquid transition.

Each structure is given as a SMILES string. Read-outs that look alike come from different tables or passages of the source.

One series has as its system sucrose loaded rats. Put plainly: Sucrose loaded rat model (SLM), antihyperglycemic activity. The class given is in vivo, rat (Charles Foster/Wistar). The note with it: 100 mg/kg oral, sucrose load 10.0 g/kg, AUC vs control, 30-120 min; for inhibition in vivo at 100 mg/kg: Rattus norvegicus, 2 h, read-out: % Fall in blood glucose levels SLM. The protocol:
Male albino rats of Charles Foster/Wistar strain of average body weight 160±20 g were selected for this study. The blood glucose level of each animal was checked by glucometer using glucostrips (Boehringer Mannheim) after 16 h starvation. Animals showing blood glucose levels between 3.33 to 4.44 mM (60 to 80 mg/dl) were divided into groups of five to six animals in each. Animals of experimental group were administered suspension of the desired synthetic compound orally (made in 1.0% gum acacia) at a dose of 100-mg/kg-body weight. Animals of control group were given an equal amount of 1.0% gum acacia. A sucrose load (10.0 g/kg) was given to each animal orally exactly after 30 min post administration of the test sample/vehicle. Blood glucose profile of each rat was again determined at 30, 60, 90 and 120 min post administration of sucrose by glucometer. Food but not water was withheld from the cages during the course of experimentation. Quantitative glucose tolerance of each animal was calculated by Area Under Curve (AUC) method (Prism Software). Comparing the AUC of experimental and control groups determined the percentage antihyperglycemic activity. Statistical comparison was made by Dunnett's test.

Series [1] deals with streptozotocin-induced diabetic rats. Put plainly: Sucrose-challenged streptozotocin-induced diabetic rats (STZ-S), antihyperglycemic activity. It counts as in vivo, rat (Sprague Dawley). The note with it: 100 mg/kg oral, sucrose load 2.5 g/kg, AUC vs control. The method, then:
Male albino rats of Sprague Dawley strain of body weight […] were selected for this study. Streptozotocin (Sigma, USA) was dissolved in 100 mM citrate buffer pH 4.5 and calculated amount of the fresh solution was injected to overnight fasted rats (45 mg/kg) intraperitoneally. Blood glucose level was checked 48 h later by glucostrips and animals showing blood glucose values between 144 to 270 mg/dl (8 to 15 mM) were included in the experiment and termed diabetic. The diabetic animals were divided into groups consisting of five to six animals in each group. Animals of experimental groups were administered suspension of the desired test samples orally (made in 1.0% gum acacia) at a dose of 100-mg/kg-body weight. Animals of control group were given an equal amount of 1.0% gum acacia. A sucrose load of 2.5-g/kg body weight was given after 30 minutes of compound administration. After 30 minutes of post sucrose load blood glucose level was again checked by glucostrips at 30, 60, 90, 120, 180, 240, 300 min and at 24 h, respectively. Animals not found diabetic after 24 hours post treatment of the test sample were not considered and omitted from the calculations and termed as non-responders. […] Food but not water was withheld from the cages during the experimentation. Comparing the AUC of experimental and control groups determined the percent antihyperglycemic activity. Statistical comparison between groups was made by Student's ‘t’ test.

Series [2] relates to triton WR-1339 induced hyperlipidemic rats. Put plainly: Triton model, antidyslipidemic activity. It counts as in vivo, rat (Charles foster). The following applies: 100 mg/kg oral; for inhibition in vivo at 100 mg/kg: Rattus norvegicus. The method, then:
Male Charles foster rats weighing 200-225 g were divided into control, hyperlipidemic and hyperlipidemic plus drug treated groups containing six animals in each group. Hyperlipidemia was induced by administration of triton WR-1339 (200 mg/kg i.p.). All animals were maintained on a special pellet diet and water ad libitum. Compounds and standard drug were macerated with 0.2% aqueous gum acacia suspension. The suspension was fed orally at the dose of 100 mg/kg simultaneously with triton in drug treated group. The animals of control group received the same amount of gum acacia by similar route of administration. At the end of the experiment, after 18 h, blood was withdrawn from retro orbital plexus and plasma was used for the assay of total cholesterol, phospholipid and triglycerides.
Cholesterol was estimated using the kit provided by Roche Diagnostics. Cholesterol esters are enzymatically hydrolyzed by cholesterol esterase (CE) to cholesterol and free fatty acids. Free cholesterol, including that originally present, is then oxidized by cholesterol oxidase (CO) to cholest-4-en-3-one and hydrogen peroxide. The hydrogen peroxide combines with hydroxy benzoic acid (HBA) and 4-aminoantipyrine (4AAA) in the presence of peroxidase (POD) to form a chromophore (quinoneimine dye), which may be quantitated at 500-505 nm. The intensity of red colour formed is directly proportional to the concentration of total cholesterol in the specimen and measured spectrophotometrically (Searcy, C. L. Diagnostic Biochemistry, 1969, McGraw Hill, New York; Ellefson, R. D.; Caraway, W. T. Fundamentals of clinical chemistry, 1976, Ed Tietz N W, 506-515.)
Triglycerides were estimated using the kit provided by Roche Diagnostics. Lipoprotein lipase hydrolyses triglycerides to yield glycerol and fatty acids. Glycerol kinase converts glycerol to glycerol-3-phosphate, which is oxidized by glycerol phosphate oxidase to dihydroxy acetone phosphate and hydrogen peroxide. In the presence of peroxidase, hydrogen peroxide oxidatively couples with 4-aminoantipyrine and 4-chloro phenol to produce red quinonimine dye. The intensity of red colour formed is directly proportional to the concentration of triglycerides in the specimen and is measured by photometrically (Wahlefeld, A. W.; Bergmeyer, H. U. Ed. Methods of enzymatic analysis, 2nd English edition, New York, N.Y., Academic press inc, 1831-1840.).
Serum (0.2 mL) and perchloric acid (1.0 mL) was digested at 180° C. for 1-1.5 h till the solution became colorless. The liberated inorganic phosphate (Pi) was measured by the method of Fiske and Subbarow (Fiske, C. H.; Subbarow, V. J. Biol. Chem. 1925, 66, 375.). 1 mL of 2.5% ammonium molybdate (prepared in 5 N sulphuric acid) and 0.5 mL reducing agent (4-amino naphthol sulphonic acid, 0.2%), sodium metabisulphite (2.4% w/v in distilled water) was added to the above tubes and mixed well. The reaction mixture was […] with 2.5 mL of triple distilled water and kept at 60° C. in water bath for 20 min. For standard, an appropriate amount of potassium dihydrogen phosphate dissolved in triple distilled water containing 2-10 μg phosphorus (Pi) was run simultaneously with the experiment tubes. The optical density of the blue colour was recorded at 620 nm against reagent blank. The values of Pi were converted into phospholipid by multiplying with 25 (a constant calibrated from Pi value of lecithin).

[3] abbreviates: plasma phospholipid after 18 h, read-out: % Fall in lipid levels (Triton model) PL.
[4] abbreviates: plasma total cholesterol after 18 h, read-out: % Fall in lipid levels (Triton model) TC.
The mark [5] stands for this setting: plasma triglycerides after 18 h, read-out: % Fall in lipid levels (Triton model) TG.
Setting [6] is: plasma total cholesterol after 18 h.
The mark [7] stands for this setting: plasma triglycerides after 18 h.

`COc1ccc(/C=C/C(=O)c2ccc(OCC(O)CNC(C)(C)C)cc2)cc1OC` (centres unmarked) [Compound 19, 4′-[3-tert-Butylamino-2-hydroxy-propoxy]-3,4-dimethoxy-chalcone]: the melting point is 62 to 64 °C. Also, in the series with sucrose loaded rats, the inhibition in vivo at 100 mg/kg came to 11.2%. Further, in series [1], the “% Fall in blood glucose levels STZ-S 5 h” value is listed as “NIL” and the “% Fall in blood glucose levels STZ-S 24 h” value is “NIL”. Besides, in series [2] (setting [3]), the inhibition in vivo at 100 mg/kg was found to be 22%. Besides, the inhibition in vivo at 100 mg/kg in series [2] (setting [4]) worked out at 21%. The inhibition in vivo at 100 mg/kg in series [2] (setting [5]) was found to be 19%.
As for `COc1ccc(/C=C/C(=O)c2ccc(OCC(O)CN3CCN(c4ccccc4)CC3)cc2)cc1` (centres unmarked) [Compound 20, 4′-[2-Hydroxy-3-(4-phenylpiperazin-1-yl)-propoxy]-4-methoxy-chalcone], the melting point was 165 to 167 °C. Also, in the series with sucrose loaded rats, the inhibition in vivo at 100 mg/kg amounted to 7.78%. In addition, in series [1], the “% Fall in blood glucose levels STZ-S 5 h” value is recorded as “NIL” and the “% Fall in blood glucose levels STZ-S 24 h” value is given as “NIL”. In series [2] (setting [3]), the inhibition in vivo at 100 mg/kg was 11%. For the same compound, the inhibition in vivo at 100 mg/kg in series [2] (setting [4]) came to 11%. Further, the inhibition in vivo at 100 mg/kg in series [2] (setting [5]) came to 10%.
In the case of `COc1ccc(/C=C/C(=O)c2ccc(OCC(O)CNCC(C)C)cc2)cc1` (centres unmarked) [Compound 21, 4′-[3-iso-Butylamino-2-hydroxy-propoxy]-4-methoxy-chalcone], the melting point was 76 to 77 °C. Besides, the inhibition in vivo at 100 mg/kg in the series with sucrose loaded rats was determined as 5.67%. Moreover, in series [2] (setting [3]), the inhibition in vivo at 100 mg/kg is 14%. Moreover, the inhibition in vivo at 100 mg/kg in series [2] (setting [4]) stood at 5%. In addition, the inhibition in vivo at 100 mg/kg in series [2] (setting [5]) worked out at 12%.
`COc1ccc(/C=C/C(=O)c2ccc(OCC(O)CNC(C)(C)C)cc2)cc1` (centres unmarked) [Compound 22, 4′-[3-tert-Butylamino-2-hydroxy-propoxy]-4-methoxy-chalcone] had a melting point of 70 to 71 °C. Besides, in the series on sucrose loaded rats, the inhibition in vivo at 100 mg/kg worked out at 11.8%. In addition, in series [1], the “% Fall in blood glucose levels STZ-S 5 h” value is on record as “NIL” and the “% Fall in blood glucose levels STZ-S 24 h” value was “NIL”. Moreover, the inhibition in vivo at 100 mg/kg in series [2] (setting [3]) was 11%. Further, the inhibition in vivo at 100 mg/kg in series [2] (setting [4]) was found to be 16%. Further, the inhibition in vivo at 100 mg/kg in series [2] (setting [5]) came out at 21%.
`COc1ccc(/C=C/C(=O)c2ccc(OCC(O)CNC(C)C)cc2)cc1` (centres unmarked) [Compound 23, 4′-[2-Hydroxy-3-iso-propylamino-propoxy]-4-methoxy-chalcone] gave a melting point of 105 to 106 °C. In the series with sucrose loaded rats, the inhibition in vivo at 100 mg/kg is 1.41%. Further, the inhibition in vivo at 100 mg/kg in series [2] (setting [3]) is 12%. Moreover, in series [2] (setting [4]), the inhibition in vivo at 100 mg/kg worked out at 17%. In addition, the inhibition in vivo at 100 mg/kg in series [2] (setting [5]) came to 22%.
On to `COc1ccc(/C=C/C(=O)c2ccc(OCC(O)CNCCc3ccc(OC)c(OC)c3)cc2)cc1` (centres unmarked) [Compound 25, 4′-[3-{2-(3,4-Dimethoxyphenyl)-ethylamino}-2-hydroxy-propoxy]-4-methoxy-chalcone], for which the melting point was 120 to 121 °C. Moreover, in the series with sucrose loaded rats, the “% Fall in blood glucose levels SLM” value was “NIL”. The inhibition in vivo at 100 mg/kg in series [2] (setting [3]) turned out to be 10%. In series [2] (setting [4]), the inhibition in vivo at 100 mg/kg was 4%. In series [2] (setting [5]), the inhibition in vivo at 100 mg/kg was found to be 33%.
In the case of `CNCC(O)COc1ccc(C(=O)/C=C/c2ccc(OC)cc2)cc1` (centres unmarked) [Compound 26, 4′-[2-Hydroxy-3-methylamino-propoxy]-4-methoxy-chalcone], the melting point was in the range of 114 to 115 °C. Besides, the inhibition in vivo at 100 mg/kg in series [2] (setting [3]) stood at 28%. For the same compound, in series [2] (setting [4]), the inhibition in vivo at 100 mg/kg turned out to be 37%. The inhibition in vivo at 100 mg/kg in series [2] (setting [5]) amounted to 39%.
`COc1ccc(/C=C/C(=O)c2cccc(OCC(O)CN3CCN(c4ccccc4)CC3)c2)cc1` (centres unmarked) [Compound 28, 3′-[2-Hydroxy-3-(4-phenylpiperazin-1-yl)-propoxy]-4-methoxy-chalcone] displayed a melting point of 153 to 154 °C. Further, the inhibition in vivo at 100 mg/kg in the series on sucrose loaded rats was 4.41%. Also, the inhibition in vivo at 100 mg/kg in series [2] (setting [3]) stood at 26%. Also, the inhibition in vivo at 100 mg/kg in series [2] (setting [4]) is 40%. Further, the inhibition in vivo at 100 mg/kg in series [2] (setting [5]) is 17%.
Taken in the same sequence, the figures for `O=C(/C=C/c1ccc2c(c1)OCO2)c1ccc(OCC(O)CN2CCN(c3ccccc3)CC2)cc1` (centres unmarked) [Compound 33, 4′-[2-Hydroxy-3-(4-phenylpiperazin-1-yl)-propoxy]-3,4-methylenedioxy-chalcone] were 153 to 154 °C, 5.03%, 21%, 22% and 16%.
Regarding `COc1ccc(C=CC(=O)c2cccc(OCCCCOc3ccc(C=C4SC(=O)NC4=O)cc3)c2)cc1` [Compound 43, 4-Methoxy-3′-{4-[4-(thiazolidin-2,4-dione-5-ylidinemethyl)-phenoxy]-butoxy}-chalcone], the “% Fall in blood glucose levels SLM” value in the series on sucrose loaded rats is recorded as “NIL”. Besides, the “% Fall in lipid levels (Triton model) PL” value in series [2] (plasma phospholipid after 18 h) is 14%. Moreover, the “% Fall in lipid levels (Triton model) TC” value in series [2] (setting [6]) was 04%. Further, in series [2] (setting [7]), the “% Fall in lipid levels (Triton model) TG” value came out at 31%.
As to `COc1ccc(C=CC(=O)c2cccc(OCCCCCOc3ccc(C=C4SC(=O)NC4=O)cc3)c2)cc1` [Compound 44, 4-Methoxy-3′-{5-[4-(thiazolidin-2,4-dione-5-ylidinemethyl)-phenoxy]-pentyloxy}-chalcone], in the series with sucrose loaded rats, the “% Fall in blood glucose levels SLM” value was “NIL”. The “% Fall in lipid levels (Triton model) PL” value in series [2] (plasma phospholipid after 18 h) is given as 13%. In series [2] (setting [6]), the “% Fall in lipid levels (Triton model) TC” value worked out at 06%. Besides, the “% Fall in lipid levels (Triton model) TG” value in series [2] (setting [7]) was 19%.
Taken in the same sequence, the figures for `O=C1NC(=O)C(=Cc2ccc(OCCCCOc3cccc(C(=O)C=Cc4ccc5c(c4)OCO5)c3)cc2)S1` [Compound 45, 3,4-Methylenedioxy-3′-{4-[4-(thiazolidin-2,4-dione-5-ylidinemethyl)-phenoxy]-butoxy}-chalcone] were 0.13%, 21%, 23% and 14%.
